# Laboratory results reported in US20220089593A1, “PDE9 INHIBITOR AND USE THEREOF” (TRANSTHERA SCIENCES (NANJING), INC., priority 2019, published 2022).
# Test system: not listed separately
# Assay: Dog liver microsomal stability
# Assay type: in vitro ADME
# Settings: dog liver microsomes 0.5 mg protein/mL, compound 1 μM, β-NADPH 1 mM, 37° C.
# Description: Test samples: the compounds disclosed herein and the compound 1-8 of patent WO2017019723A1 (prepared by referring to the examples for synthesis in WO2017019723A1) having the following structural formula: […]
# An appropriate amount of the compound was precisely weighed out and dissolved in DMSO to prepare a 5.0 mM stock solution. The 5.0 mM stock solution was diluted to 1.0 mM with DMSO, and then diluted with water to 10 μM compound working solution for later use (DMSO content in the reaction system: 0.1% v/v).
# Vd=1/protein content in liver microsomes
SMILES,half-life at 1 μM [h],microsomal CLint at 1 μM [µL/min/mg]
"CCc1ccc2[nH]c(=O)c(C#N)c(N3CCC(C)(OC)CC3)c2n1 [Compound 167, 6-ethyl-4-(4-methoxy-4-methylpiperidin-1-yl)-2-oxo-1,2-dihydro-1,5-naphthyridine-3-carbonitrile]",2.32,10
"N#Cc1c(N2CCCCCC2)c2ccccc2[nH]c1=O [Compound I-8, reference compound]",0.2,116
COC1(C)CCN(c2c(C#N)c(=O)[nH]c3cnc(C(C)OP(=O)([O-])[O-])cc23)CC1.[Na+].[Na+] (stereo not shown) [Compound 204],8.25,2.8
"COC1(C)CCN(c2c(C#N)c(=O)[nH]c3cnc([C@H](C)O)cc23)CC1 (single isomer, unassigned) [Compound B, 6-(1-hydroxyethyl)-4-(4-methoxy-4-methylpiperidin-1-yl)-2-oxo-1,2-dihydro-1,7-naphthyridine-3-carbonitrile]",14.4,1.6
"COC1(C)CCN(c2c(C#N)c(=O)[nH]c3ccc(C)nc23)CC1 [Compound 166, 4-(4-methoxy-4-methylpiperidin-1-yl)-6-methyl-2-oxo-1,2-dihydro-1,5-naphthyridine-3-carbonitrile]",6.8,3.4

# Molecular target: T1, PDE9A2 enzyme (Homo sapiens, UniProt O76083)
# T1 construct: purchased BPS 60090
# T1 sequence (O76083 1-533 isoform O76083-2): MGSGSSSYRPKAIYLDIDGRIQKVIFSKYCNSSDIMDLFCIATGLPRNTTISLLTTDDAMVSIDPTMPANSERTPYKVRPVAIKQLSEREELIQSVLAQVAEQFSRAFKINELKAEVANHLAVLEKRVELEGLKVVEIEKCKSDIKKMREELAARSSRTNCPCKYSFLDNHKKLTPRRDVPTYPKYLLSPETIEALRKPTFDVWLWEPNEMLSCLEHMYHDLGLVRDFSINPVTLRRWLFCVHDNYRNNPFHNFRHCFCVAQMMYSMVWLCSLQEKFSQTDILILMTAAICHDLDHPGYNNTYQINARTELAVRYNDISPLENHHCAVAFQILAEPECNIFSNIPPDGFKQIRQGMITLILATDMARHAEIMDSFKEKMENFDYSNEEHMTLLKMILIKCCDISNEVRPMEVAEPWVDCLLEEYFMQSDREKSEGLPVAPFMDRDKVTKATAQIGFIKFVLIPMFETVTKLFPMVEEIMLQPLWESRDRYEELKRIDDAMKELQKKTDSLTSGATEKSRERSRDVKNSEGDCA
# Assay: PDE9 enzymatic evaluation
# Assay type: biochemical
# Settings: PDE9A2 enzyme (BPS), fluorescence reading 480 nm/535 nm, room temperature
# Description: Preparation of the compounds: Compounds were formulated into 10 mM compound stock solution in DMSO for long term storage.
# Subsequently, 10 μL of the substrate mixture was added, and after centrifugation at 1000 rpm for 1 min, the resulting mixture was incubated at room temperature with oscillating for 30 min. Finally, stop solution was added to end the reaction, and the resulting reaction system was incubated at room temperature with oscillating for 60 min. In the maximum reading well (Max), the compound was replaced by solvent; in the minimum reading well (Min), the compound and the enzyme solution were replaced by solvent.
# Detection: the fluorescence readings (F) at 480 nm/535 nm were detected using a microplate reader.
# Calculation: The inhibition rate was calculated according to the following formula and IC50 was fitted using GraphPad Prism 5.0:
row,SMILES,IC50 [nM]
1,"CCc1ccc2[nH]c(=O)c(C#N)c(N3CCC(C)(OC)CC3)c2n1 [Compound 167, 6-ethyl-4-(4-methoxy-4-methylpiperidin-1-yl)-2-oxo-1,2-dihydro-1,5-naphthyridine-3-carbonitrile]",11
2,"COC1(C)CCN(c2c(C#N)c(=O)[nH]c3cccnc23)CC1 [Compound 165, 4-(4-methoxy-4-methylpiperidin-1-yl)-2-oxo-1,2-dihydro-1,5-naphthyridine-3-carbonitrile]",24
3,"CC1(C)CCN(c2c(C#N)c(=O)[nH]c3ccccc23)CC1 [Compound I-11, reference compound]",70
4,"CC(O)c1cc2c(N3CCC(C)(O)CC3)c(C#N)c(=O)[nH]c2cn1 (stereo not shown) [Compound 194, 4-(4-hydroxy-4-methylpiperidin-1-yl)-6-(1-hydroxyethyl)-2-oxo-1,2-dihydro-1,7-naphthyridine-3-carbonitrile]",37
5,"COC1(C)CCN(c2c(C#N)c(=O)[nH]c3ccc(C)nc23)CC1 [Compound 166, 4-(4-methoxy-4-methylpiperidin-1-yl)-6-methyl-2-oxo-1,2-dihydro-1,5-naphthyridine-3-carbonitrile]",19
6,"COC1(C)CCN(c2c(C#N)c(=O)[nH]c3cnc(CO)cc23)CC1 [Compound 177, 6-(hydroxymethyl)-4-(4-methoxy-4-methylpiperidin-1-yl)-2-oxo-1,2-dihydro-1,7-naphthyridine-3-carbonitrile]",15
7,"COC1(C)CCN(c2c(C#N)c(=O)[nH]c3cnc(C(C)C)cc23)CC1 [Compound 163, 6-isopropyl-4-(4-methoxy-4-methylpiperidin-1-yl)-2-oxo-1,2-dihydro-1,7-naphthyridine-3-carbonitrile]",50

# Molecular target: human PDE9 (Homo sapiens, UniProt O76083)
# Sequence (O76083 whole entry): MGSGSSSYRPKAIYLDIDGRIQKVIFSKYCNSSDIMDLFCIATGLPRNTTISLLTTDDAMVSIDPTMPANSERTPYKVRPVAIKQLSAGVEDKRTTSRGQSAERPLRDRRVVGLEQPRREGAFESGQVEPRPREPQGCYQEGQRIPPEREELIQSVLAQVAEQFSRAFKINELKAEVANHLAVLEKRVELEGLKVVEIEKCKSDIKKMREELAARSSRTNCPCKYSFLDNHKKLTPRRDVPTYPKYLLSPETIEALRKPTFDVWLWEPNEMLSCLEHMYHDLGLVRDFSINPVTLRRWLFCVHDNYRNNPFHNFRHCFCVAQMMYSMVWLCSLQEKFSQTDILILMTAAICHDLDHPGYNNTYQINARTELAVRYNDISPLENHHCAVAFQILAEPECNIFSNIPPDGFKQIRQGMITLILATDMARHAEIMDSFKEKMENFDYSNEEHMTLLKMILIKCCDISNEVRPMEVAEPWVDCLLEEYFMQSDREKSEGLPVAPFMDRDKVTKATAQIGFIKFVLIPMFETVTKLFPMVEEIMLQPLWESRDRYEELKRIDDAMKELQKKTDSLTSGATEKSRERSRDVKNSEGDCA
# Assay: not given
# Settings: background statement; cited from earlier work
row,SMILES,inhibitory activity against PDE9
1,CC(=O)Nc1ccc(-c2c[nH]c(=O)cn2)cc1 [SKF94120],no inhibitory activity or low inhibitory activity
2,OCCN(CCO)c1nc(N2CCCCC2)c2nc(N(CCO)CCO)nc(N3CCCCC3)c2n1 [dipyridamole],no inhibitory activity or low inhibitory activity
3,CCOC(=O)C1=C[C@]2(CC)CCCN3CCc4c(n1c1ccccc41)[C@@H]32 [vinpocetine],no inhibitory activity or low inhibitory activity
4,COc1ccc(C2CNC(=O)C2)cc1OC1CCCC1 (stereo not shown) [rolipram],no inhibitory activity or low inhibitory activity
5,CC(C)Cn1c(=O)n(C)c(=O)c2[nH]cnc21 [IBMX],no inhibitory activity or low inhibitory activity
